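96-well plates; 48 h exposure; 5 concentrations. Endpoints by linear interpolation between flanking doses. Not reached: highest tested concentration assigned. GI50: concentration for 50% inhibition of growth. TGI denotes the concentration required for complete inhibition of growth.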
Tests used:
Assay in all cases: growth of human tumour cells (NCI), 48 h
HT29 colon = system: HT29 colon
HOP-92 NSCLC = system: HOP-92 NSCLC
LOX IMVI melanoma = system: LOX IMVI melanoma
MALME-3M melanoma = system: MALME-3M melanoma
T-47D breast = system: T-47D breast
OVCAR-8 ovarian = system: OVCAR-8 ovarian
HCT-116 colon = system: HCT-116 colon
UO-31 renal = system: UO-31 renal
SF-295 CNS = system: SF-295 CNS
NCI-H226 lung = system: NCI-H226 lung
SK-OV-3 ovarian = system: SK-OV-3 ovarian
HOP-62 NSCLC = system: HOP-62 NSCLC
SF-268 CNS = system: SF-268 CNS
MDA-N = system: MDA-N

Row | Structure (SMILES) | TGI (HT29 colon) | TGI (HOP-92 NSCLC) | TGI (LOX IMVI melanoma) | TGI (MALME-3M melanoma) | TGI (T-47D breast) | TGI (OVCAR-8 ovarian) | TGI (HCT-116 colon) | TGI (UO-31 renal) | TGI (SF-295 CNS) | TGI (NCI-H226 lung) | TGI (SK-OV-3 ovarian) | TGI (HOP-62 NSCLC) | TGI (SF-268 CNS) | TGI (MDA-N) | GI50 (HT29 colon) | GI50 (UO-31 renal) | GI50 (SF-295 CNS) | GI50 (MDA-N)
1 | N#CC(C#N)=Cn1c(=S)[nH]c2ccc([N+](=O)[O-])cc21 | > 100 µM | > 100 µM | > 100 µM | > 100 µM | > 100 µM | > 100 µM | > 100 µM | > 100 µM | > 100 µM | > 100 µM | > 100 µM | > 100 µM | > 100 µM | > 100 µM |  |  |  | 
2 | O=C(NCCN(CCNC(=O)c1cccc(=O)n1O)CCNC(=O)c1cccc(=O)n1O)c1cccc(=O)n1O | > 100 µM | > 100 µM |  | > 100 µM | > 100 µM | > 100 µM |  | > 100 µM | > 100 µM | > 100 µM | > 100 µM | > 100 µM | > 100 µM | > 100 µM |  |  |  | 
3 | NC(=O)NC(=O)c1cccc(NC(=O)CCl)c1 | 7.37 µM | 15.2 µM | 2.17 µM | > 48.1 µM | 27.7 µM | 12.7 µM | 1.83 µM | 0.452 µM | 7.71 µM | 5.28 µM | 8.88 µM | 4.71 µM | 8.29 µM | 1.08 µM |  |  |  | 
4 | CCOC(=O)C1=NNC(C(=O)c2ccccc2)C1c1ccccc1 (stereo unspecified) | 5.3 µM | 4.46 µM | 10.6 µM | 4.77 µM | 29.3 µM | 22 µM | 7 µM | 3.71 µM | 31.8 µM | 39.5 µM | 33.1 µM | 26 µM | 19.2 µM | 3.98 µM |  |  |  | 
5 | COC1(OC)C2C=CC1C([C@](C)(N)CO)C2 (stereo partly specified) | > 100 µM | > 100 µM |  | > 100 µM | > 100 µM | > 100 µM | > 100 µM | > 100 µM | > 100 µM | > 100 µM | > 100 µM | > 100 µM | > 100 µM | > 100 µM |  |  |  | 
6 | CN1CCN(Cc2ccccc2)CC1CC#N (stereo unspecified) | > 100 µM |  | > 100 µM | > 100 µM | > 100 µM | > 100 µM | > 100 µM | > 100 µM | > 100 µM | > 100 µM | > 100 µM | > 100 µM | > 100 µM | > 100 µM |  |  |  | 
7 | c1cc2c3ccsc3c3sccc3c2s1 | > 100 µM | > 100 µM | > 100 µM |  | > 100 µM | > 100 µM | > 100 µM | > 100 µM | > 100 µM | > 100 µM | > 100 µM | 70.5 µM | > 100 µM | > 100 µM |  |  |  | 
8 | O=C1c2c(O)cccc2Cc2cc(CO)cc(O)c21 | > 100 µM | 4.21 µM |  | 5.37 µM | 11.9 µM | 12.8 µM | 16.7 µM | 4.97 µM | 5.85 µM | 17.3 µM |  | 11.9 µM | 14.3 µM | 11.5 µM |  |  |  | 
9 | O=C(NC(CCCCN1C(=O)c2ccccc2C1=O)P(=O)(Oc1ccccc1)Oc1ccccc1)OCc1ccccc1 (stereo unspecified) | > 100 µM | > 100 µM |  | > 100 µM | > 100 µM | > 100 µM |  | > 100 µM | > 100 µM | > 100 µM | > 100 µM | > 100 µM | > 100 µM | > 100 µM |  |  |  | 
10 | CCOC(=O)CCc1ccc(NC(=O)/C=C/c2ccc([N+](=O)[O-])o2)cc1 | 3.43 µM | 50.7 µM | 1.54 µM | 3.14 µM | 40.8 µM | 2.28 µM | 2.01 µM | 3.08 µM | 28.7 µM | 25.5 µM | > 100 µM | 11 µM | 7.63 µM | 2.95 µM |  |  |  | 
11 | CCOC(=O)c1csc(-c2cn(C)c3c2C(=O)C(OC)=CC3=O)n1 | > 100 µM | > 100 µM | > 100 µM |  | > 100 µM | > 100 µM | > 100 µM | > 100 µM | 96.9 µM | > 100 µM | > 100 µM | 74 µM | > 100 µM | > 50.1 µM |  |  |  | 
12 | Cc1cc(S(=O)(=O)NC2=NCC(C)(C)CN2)c(S)cc1Cl | 46.3 µM |  | 31.2 µM | > 100 µM | > 100 µM | 71.8 µM | 75.8 µM | 99.8 µM |  | 94.8 µM | > 100 µM | > 100 µM | > 100 µM | 83.4 µM |  |  |  | 
13 | COC1OC(Cn2cc([N+](=O)[O-])nc2C)C(O)C(O)C1O (stereo unspecified) | > 100 µM | > 100 µM |  | > 100 µM | > 100 µM |  | > 100 µM | > 100 µM | > 100 µM |  | > 100 µM | > 100 µM |  | > 100 µM |  |  |  | 
14 | Cc1nn(C(=O)c2ccc(Cl)cc2)c2c1C(c1ccc(Cl)cc1)SC(N)=N2 (stereo unspecified) | > 10 µM | > 10 µM | > 10 µM | > 10 µM | > 10 µM | > 10 µM | > 10 µM |  | > 10 µM | > 10 µM | > 10 µM | > 10 µM | > 10 µM | > 10 µM |  |  |  | 
15 | COc1ccc2[nH]c3c(O)c(-c4c(C)cc5c([nH]c6ccc(OC)cc65)c4O)c(C)cc3c2c1 | 7.6 µM | 8.18 µM | 8.06 µM |  | 13.8 µM | 8.39 µM | 7.63 µM | 7.12 µM | 8.86 µM | 9.06 µM |  | 8.35 µM | 8.06 µM | 8.22 µM | 3.71 µM | 3.78 µM | 5.11 µM | 4.5 µM
16 | COc1ccc(NC(=O)NNS(=O)(=O)c2ccc(C)cc2)cc1 | > 100 µM | > 100 µM |  | > 100 µM | > 100 µM | > 100 µM | > 100 µM | > 100 µM | > 100 µM | > 100 µM | > 100 µM | > 100 µM | > 100 µM | > 100 µM |  |  |  | 
17 | CC(=O)N1N=C(c2ccc3ccccc3c2O)CC1c1ccc(N(C)C)cc1 (stereo unspecified) | > 100 µM | > 100 µM |  | > 100 µM | > 100 µM | > 100 µM | > 100 µM | > 100 µM | > 100 µM | > 100 µM | > 100 µM | > 100 µM | > 100 µM | > 100 µM |  |  |  | 

— PubChem BioAssay (NCI)
